Test results taken from ChEMBL document CHEMBL1135256, “Benzimidazole-4,7-diones as inhibitors of protozoal (Toxoplasma gondii) purine nucleoside phosphorylase” (Bioorg Med Chem Lett, 2002).

Assays:
[1] = test system: Purine nucleoside phosphorylase (Toxoplasma gondii); test: Inhibition of Toxoplasma gondii purine nucleoside phosphorylase from virulent strain RH at 1 mM
[2] = test system: Purine nucleoside phosphorylase (Toxoplasma gondii); test: Inhibition of Toxoplasma gondii purine nucleoside phosphorylase from virulent strain RH at 4 mM
[3] = test system: Purine nucleoside phosphorylase (Toxoplasma gondii); test: Inhibition of Toxoplasma gondii purine nucleoside phosphorylase from cystic strain ME 49 at 1 mM
[4] = test system: Purine nucleoside phosphorylase (Toxoplasma gondii); test: Inhibition of Toxoplasma gondii purine nucleoside phosphorylase from cystic strain ME 49 at 4 mM
[5] = target: T1, Purine nucleoside phosphorylase (Homo sapiens) (UniProt P00491); test: Compound was evaluated for its ability to inhibit in vitro Toxoplasma gondii purine nucleoside phosphorylase from cystic strain ME 49 at a concentration of 4 mM
T1 sequence (whole entry): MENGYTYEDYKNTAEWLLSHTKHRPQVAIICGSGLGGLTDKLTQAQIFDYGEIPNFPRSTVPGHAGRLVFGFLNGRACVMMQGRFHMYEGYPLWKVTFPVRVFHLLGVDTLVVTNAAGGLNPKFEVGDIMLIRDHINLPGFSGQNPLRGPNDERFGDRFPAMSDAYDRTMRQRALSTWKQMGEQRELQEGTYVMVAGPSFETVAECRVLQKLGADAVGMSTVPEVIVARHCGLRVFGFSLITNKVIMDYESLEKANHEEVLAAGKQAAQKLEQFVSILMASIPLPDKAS

| SMILES | inhibition [1] [%] | inhibition [2] [%] | inhibition [3] [%] | inhibition [4] [%] | inhibition [5] [%] |
| --- | --- | --- | --- | --- | --- |
| O=c1[nH]cnc2c1cnn2[C@@H]1O[C@H](CO)[C@@H](O)[C@H]1O | 8 | 28 | 11 | 22 |  |
| Cn1cnc2c1C(=O)C=CC2=O | 55 | 85 | 31 | 82 |  |
| O=C1C=CC(=O)c2c1ncn2Cc1ccccc1F | 70 | 87 | 62 | 89 |  |
| O=C1C=CC(=O)c2c1ncn2Cc1cccc(F)c1 | 65 | 100 | 60 | 100 |  |
| O=C1C=CC(=O)c2c1nc(Cc1ccccc1)n2Cc1ccccc1 | 65 | 80 | 61 | 78 |  |
| O=C1C=CC(=O)c2c1ncn2Cc1ccc(F)cc1 | 80 | 88 | 56 |  | 100 |
| Cc1nc2c(n1Cc1ccccc1)C(=O)C=CC2=O | 54 | 82 | 66 | 92 |  |
| O=C1C=CC(=O)c2[nH]cnc21 | 47 | 68 | 52 | 71 |  |
| CCCCn1cnc2c1C(=O)C=CC2=O | 45 | 68 | 53 | 65 |  |
